Results published in patent US7297714B2, “Inhibitors of cathepsin S” (IRM LLC, priority 2003, dated 2007).

Key:
Format in all cases: biochemical
Cathepsin S = Cathepsin S (Homo sapiens, UniProt P25774); experiment: Cathepsin S inhibition assay (fluorogenic peptide substrate); details: Cathepsin S inhibition constant; pH5.5; read-out: Ki Cat. S
Description: “Inhibition constant”, Ki, is the dissociation constant of the enzyme-inhibitor complex, or the reciprocal of the binding affinity of the inhibitor to the enzyme. For classical inhibition the value of Ki is much greater than the enzyme concentration and the Ki can be measured by monitoring the rate of reaction for a competitive substrate at multiple inhibitor concentrations. The inhibited rates are then fit by nonlinear regression to the following equation: […]
The assumption being made for the classical inhibition described above is that the free inhibitor concentration is equal to the total inhibitor concentration. For inhibitors that have Ki's that are approximately equal to the enzyme concentration [E], the assumption that the free inhibitor concentration is equal to the total inhibitor concentration is no longer valid and an alternative equation has to be fit for determination of the apparent inhibition constant, Ki^app using described methods (Kuzmic, P., K. C. Elrod, et al., Anal Biochem 2000, 286(1), 45-50):
(§1) The optimal substrate for cathepsin S, acetyl-histidine-proline-valine-lysine-amino carbamoyl coumarin, was identified from screening a combinatorial library of fluorogenic peptide substrates (Harris, J. L., B. J. Backes, et al., Proc Natl Acad Sci U S A 2000, 97(14), 7754-9). Kinetic measurements are performed in a total reaction volume of 30 μl in 384-well microtiter plates. Cathepsin S, at a final concentration of 0.3-3 nM (active site), is incubated with the compounds at twelve varying concentrations in a buffer containing 100 mM NaAc (pH5.5), 1 mM EDTA, 100 mM NaCl, 0.01% Brij-35 for 20 minutes at room temperature. Control reactions in the absence of inhibitor are performed in replicates of 24. The reactions are initiated by adding the substrate, acetyl-histidine-proline-valine-lysine-amino carbamoyl coumarin, to a final concentration of 50 μM. The rate of substrate hydrolysis is measured by monitoring the increase in fluorescence at an excitation wavelength of 380 nm and an emission wavelength of 450 nm that results from cleavage of the aniline bond in the substrate by the enzyme. The apparent inhibition constants for the compounds are determined from the enzyme progress curves (Kuzmic, P., K. C. Elrod, et al., Anal Biochem 2000, 286(1), 45-50) and are then used to calculate the inhibition constants for competitive inhibitors.

Cathepsin K = molecular target: T1, Cathepsin K (Homo sapiens, UniProt P43235); experiment: Cathepsin K inhibition assay, selectivity for cathepsin S over cathepsin K; details: ratio of cathepsin K inhibition constant to cathepsin S inhibition constant
T1 sequence (P43235 115-329): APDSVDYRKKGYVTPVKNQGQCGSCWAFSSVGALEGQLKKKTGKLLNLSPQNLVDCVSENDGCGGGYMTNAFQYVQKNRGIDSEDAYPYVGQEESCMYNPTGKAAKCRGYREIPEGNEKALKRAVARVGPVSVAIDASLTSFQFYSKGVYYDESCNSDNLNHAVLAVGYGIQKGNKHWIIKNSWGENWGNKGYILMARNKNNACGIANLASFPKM
Experimental: as §1, with “cathepsin K, acetyl-lysine-histidine-proline-lysine-amino” for “cathepsin S, acetyl-histidine-proline-valine-lysine-amino”, “Sci USA” for “Sci U S A”, “Cathepsin K,” for “Cathepsin S,”, “of 3.5” for “of 0.3-3”, “substrate, acetyl-lysine-histidine-proline-lysine-amino” for “substrate, acetyl-histidine-proline-valine-lysine-amino”, “of 40” for “of 50”
(§2) Selectivity for cathepsin S in the presence of cathepsin isozymes was determined by the ratio of the cathepsin isozyme inhibition constant of a compound of the present invention to the cathepsin S inhibition constant of the same compound. Preferred compounds of the present invention selective for cathepsin S have ratios of greater than 10. More preferred compounds of the present invention selective for cathepsin S have ratios of greater than 100. Most preferred compounds of the present invention selective for cathepsin S have ratios of greater than 1000.

Cathepsin L = Cathepsin L (Homo sapiens, UniProt P07711); experiment: Cathepsin L inhibition assay, selectivity for cathepsin S over cathepsin L; details: ratio of cathepsin L inhibition constant to cathepsin S inhibition constant
Cathepsin L, sequence (P07711 114-333, species assumed): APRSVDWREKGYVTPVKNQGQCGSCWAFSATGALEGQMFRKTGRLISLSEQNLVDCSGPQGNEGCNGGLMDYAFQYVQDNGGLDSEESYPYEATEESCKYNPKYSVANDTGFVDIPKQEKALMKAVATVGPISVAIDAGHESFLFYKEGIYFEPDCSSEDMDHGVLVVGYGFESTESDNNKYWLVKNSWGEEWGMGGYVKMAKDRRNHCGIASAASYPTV
Experimental: The optimal substrate for cathepsin L, acetyl-histidine-lysine-phenylalanine-lysine-amino carbamoyl coumarin, was identified from screening a combinatorial library of fluorogenic peptide substrates (Harris, J. L., B. J. Backes, et al.; Proc Natl Acad Sci USA 2000, 97(14), 7754-9). Kinetic measurements are performed in a total reaction volume of 30 μl in 384-well microtiter plates. Cathepsin L, at a final concentration of 0.1 nM (active site), is incubated with the compounds at twelve varying concentrations in a buffer containing 100 mM NaAc (pH5.5), 1 mM EDTA, 100 mM NaCl, 0.01% Brij-35 for 20 minutes at room temperature. Control reactions in the absence of inhibitor are performed in replicates of 24. The reactions are initiated by adding the substrate, acetyl-histidine-lysine-phenylalanine-lysine-amino carbamoyl coumarin, to a final concentration of 20 μM. The rate of substrate hydrolysis is measured by monitoring the increase in fluorescence at an excitation wavelength of 380 nm and an emission wavelength of 450 nm that results from cleavage of the aniline bond in the substrate by the enzyme. The apparent inhibition constants for the compounds are determined from the enzyme progress curves (Kuzmic, P., K. C. Elrod, et al., Anal Biochem 2000, 286(1), 45-50) and are then used to calculate the inhibition constants for competitive inhibitors.
as §2

Cathepsin B = Cathepsin B (Homo sapiens, UniProt P07858); experiment: Cathepsin B inhibition assay, selectivity for cathepsin S over cathepsin B; details: ratio of cathepsin B inhibition constant to cathepsin S inhibition constant
Experimental: as §1, with “cathepsin B,” for “cathepsin S,”, “Sci US” for “Sci U S”, “Cathepsin B,” for “Cathepsin S,”, “of 1.5” for “of 0.3-3”, “of 10” for “of 50”
as §2

Cathepsin S, sequence (P25774 115-331, species assumed): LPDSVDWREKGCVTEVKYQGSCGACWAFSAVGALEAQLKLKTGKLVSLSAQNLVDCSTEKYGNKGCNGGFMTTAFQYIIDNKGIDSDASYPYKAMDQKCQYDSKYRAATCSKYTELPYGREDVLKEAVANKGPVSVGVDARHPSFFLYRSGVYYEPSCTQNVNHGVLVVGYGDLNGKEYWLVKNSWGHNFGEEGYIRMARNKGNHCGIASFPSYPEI

| Compound | Ki (Cathepsin S) | Selectivity for Cat. S over Cat. K (Cathepsin K) | Selectivity for Cat. S over Cat. L (Cathepsin L) | Selectivity for Cat. S over Cat. B (Cathepsin B) |
| --- | --- | --- | --- | --- |
| O=C1C[C@H](NC(=O)[C@H](CC2CCCC2)NC(=O)OC2CCOCC2)C(O)O1 (stereo partly drawn) [Example 20, (3S)-(3-Cyclopentyl-(2S)-(tetrahydro-pyran-4-yloxycarbonylamino)-propionylamino)-4-oxo-butyric acid] | < 100 nM | ++ (++, >100) | ++ (++, >100) | +++ (+++, >1000) |
| O=C1CC(NC(=O)C(CC2CCCC2)NC(=O)c2ccc(-c3cccc(F)c3)o2)C(OC2CCCC2)O1 [Example 26, (3S)-[3-Cyclopentyl-(2S)-{[5-(3-fluoro-phenyl)-furan-2-carbonyl]-amino}propionylamino]-2-cyclopentoxy-5-oxo-tetrahydrofuran] | < 100 nM | + (+, >10) | +++ (+++, >1000) | +++ (+++, >1000) |
| CC(C)(C)C[C@H](NC(=O)C1CC1)C(=O)N[C@H]1CC(=O)OC1O (stereo partly drawn) [Example 22, (3S)-((2S)-(cyclopropylcarbonylamino)-4,4-dimethyl-pentanoylamino)-4-oxo-butyric acid] | < 100 nM | + (+, >10) | +++ (+++, >1000) | +++ (+++, >1000) |
| O=C1C[C@H](NC(=O)[C@H](CC2CCCC2)NC(=O)C2CC2)C(O)O1 (stereo partly drawn) [Example 19, (3S)-(3-Cyclopentyl-(2S)-(cyclopropylcarbonylamino)-propionylamino)-4-oxo-butyric acid] | < 100 nM | ++ (++, >100) | +++ (+++, >1000) | +++ (+++, >1000) |
| O=C1C[C@H](NC(=O)[C@H](CC2CCCC2)NC(=O)c2ccc(-c3cccc(C(F)(F)F)c3)o2)C(O)O1 (stereo partly drawn) [Example 23, (3S)-(3-Cyclopentyl-(2S)-{[5-(3-trifluoromethyl-phenyl)-furan-2-carbonyl]-amino}-propionylamino)-4-oxo-butyric acid] | < 100 nM | ++ (++, >100) | +++ (+++, >1000) | +++ (+++, >1000) |
| O=C1C[C@H](NC(=O)[C@H](CC2CC2)NC(=O)C2CC2)C(O)O1 (stereo partly drawn) [Example 21, (3S)-(3-Cyclopropyl-(2S)-(cyclopropylcarbonylamino)-propionylamino)-4-oxo-butyric acid] | < 100 nM | + (+, >10) | ++ (++, >100) | ++ (++, >100) |
| COC1OC(=O)C[C@@H]1NC(=O)[C@H](CC1CCCCC1)NC(=O)c1ccc(-c2cccc(F)c2)o1 (stereo partly drawn) [Example 16, (3S)-[3-Cyclohexyl-(2S)-{[5-(3-fluoro-phenyl)-furan-2-carbonyl]-amino}propionylamino]-2-methoxy-5-oxo-tetrahydrofuran] | < 1000 nM | + (+, >10) | + (+, >10) | + (+, >10) |
| O=C1C[C@H](NC(=O)[C@H](CC2CCCCC2)NC(=O)OCc2ccccc2)C(OCc2ccccc2)O1 (stereo partly drawn) [Example 11, (3S)-[(2S)-benzyloxycarbonylamino-3-cycohexyl-propionylamino]-2-benzyloxy-5-oxo-tetrahydrofuran] | < 100 nM | + (+, >10) |  | + (+, >10) |
| O=C1C[C@H](NC(=O)[C@H](CC2CCCCC2)NC(=O)c2ccc(-c3cccc(F)c3)o2)C(O)O1 (mixture of isomers) [Example 15, (3S)-(3-Cyclohexyl-(2S)-{[5-(3-fluoro-phenyl)-furan-2-carbonyl]-amino}-propionylamino)-4-oxo-butyric acid] | < 100 nM | ++ (++, >100) | ++ (++, >100) | +++ (+++, >1000) |
| CCO[C@@H]1OC(=O)C[C@@H]1NC(=O)[C@H](CC(C)(C)C)NC(=O)OC(C)(C)C [Example 13, (3S)-[(2S)-t-butoxycarbonylamino-4,4-dimethyl-pentanoylamino]-(2R)-ethoxy-5-oxo-tetrahydrofuran] | < 1000 nM |  | + (+, >10) | ++ (++, >100) |
